Source: PMC2586337 (Biochemistry, 2008)
Read-outs that look alike come from different tables or passages of the source.

What was measured:
[1] = molecular target: T1, primase (UL5/UL8/UL52) (Human herpesvirus 1, UniProt P10236); assay: Incorporation of nucleotides as the 5′-terminal nucleotide of the primer; format: biochemical, herpes simplex virus I
[2] = molecular target: T1, primase (UL5/UL8/UL52); assay: Incorporation of nucleotides as the second nucleotide of the primer; format: biochemical, herpes simplex virus I
[3] = molecular target: T1, primase (UL5/UL8/UL52); assay: Polymerization of nucleoside triphosphates onto a RNA primer:DNA template; format: biochemical, herpes simplex virus I; conditions: for VMax: primer:template DNAT, DNAC or DNAG; for Km: primer:template with next correct NTP: DNAT (ATP), DNAC (GTP), DNAG (CTP)
[4] = molecular target: T1, primase (UL5/UL8/UL52); assay: Primer synthesis on d; format: biochemical, herpes simplex virus I; conditions: for incorporation by primase opposite template dG (new products of altered mobility): template d(GTCT)15, ATP, 800 μM analogue; for incorporation by primase opposite template dG (new products of altered mobility) / primers elongated after incorporation of the nucleotide: GTP; for chain termination after incorporation: template d(GTCT)15, ATP and GTP; for primers elongated after incorporation of the nucleotide: 800 μM ATP
[5] = molecular target: T1, primase (UL5/UL8/UL52); assay: Inhibition of NTP polymerization onto primer:templates; format: biochemical; conditions: for type of inhibition with respect to GTP incorporation: data not shown
[6] = molecular target: T1, primase (UL5/UL8/UL52); format: biochemical, herpes simplex virus I
[7] = inhibition of ATP polymerization, ATP (100 μM), DNAT
[8] = inhibition of GTP polymerization, 800 μM GTP, DNAC
[9] = inhibition of GTP polymerization, GTP (100 μM), DNAC
[10] = IC50, inhibition of GTP polymerization, 800 μM GTP, DNAC

T1 sequence (P10189 whole entry): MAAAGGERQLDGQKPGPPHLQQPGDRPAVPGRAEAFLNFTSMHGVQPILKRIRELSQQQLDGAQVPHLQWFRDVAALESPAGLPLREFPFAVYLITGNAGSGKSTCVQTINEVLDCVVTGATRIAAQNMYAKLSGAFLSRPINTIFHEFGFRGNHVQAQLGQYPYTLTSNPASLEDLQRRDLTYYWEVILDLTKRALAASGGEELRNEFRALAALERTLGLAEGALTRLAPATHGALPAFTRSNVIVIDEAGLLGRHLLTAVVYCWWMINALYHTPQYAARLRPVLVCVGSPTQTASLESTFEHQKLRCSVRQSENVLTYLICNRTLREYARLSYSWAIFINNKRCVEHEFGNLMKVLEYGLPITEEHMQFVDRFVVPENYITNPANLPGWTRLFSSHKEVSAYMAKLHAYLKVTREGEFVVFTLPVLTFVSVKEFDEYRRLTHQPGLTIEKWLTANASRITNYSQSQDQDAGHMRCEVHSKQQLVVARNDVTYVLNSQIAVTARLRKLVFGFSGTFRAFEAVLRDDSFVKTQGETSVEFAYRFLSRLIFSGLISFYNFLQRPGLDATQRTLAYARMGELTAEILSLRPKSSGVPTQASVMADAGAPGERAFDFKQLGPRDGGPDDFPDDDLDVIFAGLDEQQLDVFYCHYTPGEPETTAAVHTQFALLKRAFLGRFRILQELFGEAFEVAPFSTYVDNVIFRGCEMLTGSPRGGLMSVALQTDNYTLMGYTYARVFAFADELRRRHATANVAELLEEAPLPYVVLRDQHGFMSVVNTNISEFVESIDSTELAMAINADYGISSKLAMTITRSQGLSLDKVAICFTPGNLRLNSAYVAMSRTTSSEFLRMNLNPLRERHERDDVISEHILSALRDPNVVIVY
T1 sequence (P10192 whole entry, further chain): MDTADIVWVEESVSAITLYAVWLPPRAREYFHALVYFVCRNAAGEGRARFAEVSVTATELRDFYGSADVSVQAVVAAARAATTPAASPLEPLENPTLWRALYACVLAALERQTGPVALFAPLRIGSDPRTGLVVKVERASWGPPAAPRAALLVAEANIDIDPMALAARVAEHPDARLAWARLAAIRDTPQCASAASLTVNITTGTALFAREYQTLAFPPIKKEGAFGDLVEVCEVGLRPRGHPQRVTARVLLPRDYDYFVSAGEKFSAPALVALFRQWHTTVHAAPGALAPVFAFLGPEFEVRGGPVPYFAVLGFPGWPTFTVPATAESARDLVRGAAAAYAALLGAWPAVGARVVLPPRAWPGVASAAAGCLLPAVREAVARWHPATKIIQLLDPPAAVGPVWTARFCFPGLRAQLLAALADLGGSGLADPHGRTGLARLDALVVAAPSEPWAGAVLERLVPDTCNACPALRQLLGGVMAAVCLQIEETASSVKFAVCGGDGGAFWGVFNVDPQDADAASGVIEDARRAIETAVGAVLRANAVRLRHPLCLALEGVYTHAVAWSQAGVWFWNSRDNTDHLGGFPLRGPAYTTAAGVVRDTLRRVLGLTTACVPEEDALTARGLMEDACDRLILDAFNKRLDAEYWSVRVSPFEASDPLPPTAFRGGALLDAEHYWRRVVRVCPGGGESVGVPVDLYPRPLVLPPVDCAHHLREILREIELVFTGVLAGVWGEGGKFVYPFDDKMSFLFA
T1 sequence (P10236 whole entry): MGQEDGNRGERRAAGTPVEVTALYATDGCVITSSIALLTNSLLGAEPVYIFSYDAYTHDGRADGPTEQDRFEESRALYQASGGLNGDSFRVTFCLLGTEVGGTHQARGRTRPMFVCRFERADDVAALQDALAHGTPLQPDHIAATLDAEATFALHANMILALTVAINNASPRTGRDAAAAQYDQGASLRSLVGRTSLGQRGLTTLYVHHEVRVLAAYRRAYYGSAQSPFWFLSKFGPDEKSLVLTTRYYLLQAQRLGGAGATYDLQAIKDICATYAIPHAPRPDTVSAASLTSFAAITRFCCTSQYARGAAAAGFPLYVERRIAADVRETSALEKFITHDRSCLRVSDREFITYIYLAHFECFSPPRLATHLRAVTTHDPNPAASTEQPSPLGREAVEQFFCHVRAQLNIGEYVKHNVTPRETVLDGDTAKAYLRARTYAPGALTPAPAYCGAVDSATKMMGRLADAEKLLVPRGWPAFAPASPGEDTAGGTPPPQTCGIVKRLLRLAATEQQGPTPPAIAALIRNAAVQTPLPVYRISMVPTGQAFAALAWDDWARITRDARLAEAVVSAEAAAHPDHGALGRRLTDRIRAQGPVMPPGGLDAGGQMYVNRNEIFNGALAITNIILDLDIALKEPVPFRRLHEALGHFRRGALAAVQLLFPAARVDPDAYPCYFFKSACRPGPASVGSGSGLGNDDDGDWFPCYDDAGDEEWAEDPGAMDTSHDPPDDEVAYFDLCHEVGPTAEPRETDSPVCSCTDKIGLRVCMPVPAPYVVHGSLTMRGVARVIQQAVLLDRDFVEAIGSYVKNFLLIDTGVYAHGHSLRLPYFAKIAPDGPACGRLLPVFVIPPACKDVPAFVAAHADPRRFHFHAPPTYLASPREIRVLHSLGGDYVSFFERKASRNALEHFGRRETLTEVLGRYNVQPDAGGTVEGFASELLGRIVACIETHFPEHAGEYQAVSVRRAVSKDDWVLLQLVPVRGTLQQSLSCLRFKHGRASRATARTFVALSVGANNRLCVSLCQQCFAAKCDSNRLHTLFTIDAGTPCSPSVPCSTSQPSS

Nc1ncnc2c1ncn2[C@H]1C[C@H](O)[C@@H](COP(=O)(O)OP(=O)(O)OP(=O)(O)O)O1 [2′-dATP]
VMax [1]: 20 ± 1.1 pmol/min | VMax [2]: >10 pmol/min | VMax [3]: 0.024 ± 0.06 pmol/h | Km [3]: 770 ± 370 µM

Nc1ccn([C@H]2C[C@H](O)[C@@H](COP(=O)(O)OP(=O)(O)OP(=O)(O)O)O2)c(=O)n1 [2′-dCTP]
VMax [3]: 0.16 ± 0.036 pmol/h | Km [3]: 640 ± 360 µM | incorporation by primase opposite template dG (new products of altered mobility) [4]: readily incorporates

Nc1nc2c(ncn2[C@H]2C[C@H](O)[C@@H](COP(=O)(O)OP(=O)(O)OP(=O)(O)O)O2)c(=O)[nH]1 [2′-dGTP]
VMax [2]: 5.3 ± 0.8 pmol/min | VMax [3]: 0.18 ± 0.02 pmol/h | Km [3]: 130 ± 80 µM

Nc1ncnc2c1ncn2[C@@H]1O[C@H](COP(=O)(O)OP(=O)(O)OP(=O)(O)O)C[C@H]1O [3′-dATP, cordycepin triphosphate]
IC50 ([5]; inhibition of ATP polymerization, 800 μM ATP, DNAT): 1100 ± 170 µM

Nc1nc2c(ncn2COCCOP(=O)(O)OP(=O)(O)OP(=O)(O)O)c(=O)[nH]1 [ACVTP, acyclovir triphosphate]
IC50 [5]: 3200 ± 570 µM

Nc1ncnc2c1ncn2[C@@H]1O[C@H](COP(=O)(O)OP(=O)(O)O)[C@@H](O)[C@H]1O [ADP]
IC50 [5, 7]: > 10000 µM

Nc1ncnc2c1ncn2[C@@H]1O[C@H](COP(=O)(O)O)[C@@H](O)[C@H]1O [AMP]
IC50 [5, 7]: > 10000 µM

Nc1ncnc2c1ncn2[C@@H]1O[C@H](COP(=O)(O)OP(=O)(O)OP(=O)(O)O)[C@@H](O)[C@H]1O [ATP]
VMax [1]: 14 ± 1.7 pmol/min | VMax [2]: 5.1 ± 1.8 pmol/min | VMax [3]: 0.23 ± 0.09 pmol/h | Km [3]: 1700 ± 960 µM

Nc1ncnc2c1ncn2[C@@H]1O[C@H](COP(=O)(O)OP(=O)(O)OP(=O)(O)O)[C@@H](O)[C@@H]1O [AraATP, arabionfuranosyladenine triphosphate]
VMax [1]: 0.04 ± 0.005 pmol/min | VMax [2]: 1.0 ± 0.16 pmol/min | VMax [3]: 0.026 ± 0.004 pmol/h | Km [3]: 190 ± 110 µM

Nc1ccn([C@@H]2O[C@H](COP(=O)(O)OP(=O)(O)OP(=O)(O)O)[C@@H](O)[C@@H]2O)c(=O)n1 [AraCTP, arabinofuranosylcytosine triphosphate]
VMax [3]: 0.30 ± 0.05 pmol/h | Km [3]: 360 ± 190 µM | chain termination after incorporation [4]: very strong chain termination | incorporation by primase opposite template dG (new products of altered mobility) [4]: polymerized

Nc1nc2c(ncn2[C@@H]2O[C@H](COP(=O)(O)OP(=O)(O)OP(=O)(O)O)[C@@H](O)[C@@H]2O)c(=O)[nH]1 [AraGTP, arabinofuranosylguanine triphosphate]
VMax [2]: 4.1 ± 0.3 pmol/min | VMax [3]: 0.044 ± 0.006 pmol/h | Km [3]: 300 ± 140 µM

Nc1ccn([C@@H]2O[C@H](COP(=O)(O)OP(=O)(O)OP(=O)(O)O)[C@@H](O)[C@H]2O)c(=O)n1 [CTP]
VMax [3]: 1.2 ± 0.16 pmol/h | Km [3]: 1100 ± 280 µM | primers elongated after incorporation of the nucleotide ([4]; template d(GTCT)15): 75% | incorporation by primase opposite template dG (new products of altered mobility) [4]: readily incorporates

Nc1nc(O)c2ncn(COC(CO)COP(=O)(O)OP(=O)(O)OP(=O)(O)O)c2n1 (centres unmarked) [GCVTP, ganciclovir triphosphate]
IC50 [5, 8]: 3400 ± 880 µM

Nc1nc2c(ncn2[C@@H]2O[C@H](COP(=O)(O)OP(=O)(O)O)[C@@H](O)[C@H]2O)c(=O)[nH]1 [GDP]
type of inhibition with respect to GTP incorporation [5]: competitive | IC50 [5, 9]: 4400 ± 650 µM

Nc1nc2c(ncn2[C@@H]2O[C@H](COP(=O)(O)O)[C@@H](O)[C@H]2O)c(=O)[nH]1 [GMP]
IC50 [5, 9]: 3800 ± 540 µM

Nc1nc2c(ncn2[C@@H]2O[C@H](COP(=O)(O)OP(=O)(O)OP(=O)(O)O)[C@@H](O)[C@H]2O)c(=O)[nH]1 [GTP]
VMax [1]: 1.1 ± 0.27 pmol/min | VMax [2]: 9.5 ± 1.3 pmol/min | VMax [3]: 0.060 ± 0.012 pmol/h | Km [3]: 230 ± 170 µM

Nc1ccn(C2SC(COP(=O)(O)OP(=O)(O)OP(=O)(O)O)C(O)C2O)c(=O)n1 (centres unmarked) [SaraCTP, 4′-thio-arabinofuranosylcytosine triphosphate]
chain termination after incorporation [4]: very strong chain termination | incorporation by primase opposite template dG (new products of altered mobility) [4]: polymerized

Nc1ccn([C@@H]2O[C@H](COP(=O)(O)OP(=O)(O)OP(=O)(O)O)[C@@H](O)C2(F)F)c(=O)n1 [dFdCTP, 2′,2′-Difluoro-2′-deoxycytidine triphosphate]
primers elongated after incorporation of the nucleotide ([4]; template d(GTCT)15): 11% | inhibition of primase ([4]; 800 μM, template d(GTCT)15): relatively strong inhibition | chain termination after incorporation [4]: strong chain termination | incorporation by primase opposite template dG (new products of altered mobility) [4]: polymerized

Nc1ncnc2c1ncn2[C@H]1CC[C@@H](COP(=O)(O)OP(=O)(O)OP(=O)(O)O)O1 [ddATP]
IC50 ([5]; IC50, inhibition of ATP polymerization, 800 μM ATP, DNAT): 1700 ± 110 µM | IC50 [5, 10]: 2400 ± 900 µM

Nc1ccn([C@H]2CC[C@@H](COP(=O)(O)OP(=O)(O)OP(=O)(O)O)O2)c(=O)n1 [ddCTP]
IC50 [5, 10]: 800 ± 120 µM | incorporation by primase opposite template dG (new products of altered mobility) [4]: does not readily incorporate | inhibition of primase ([4]; template d(GTCT)15, increased ddCTP concentration, data not shown): > 90%

Nc1nc2c(ncn2[C@H]2CC[C@@H](COP(=O)(O)OP(=O)(O)OP(=O)(O)O)O2)c(=O)[nH]1 [ddGTP]
type of inhibition with respect to GTP incorporation [5]: competitive | IC50 [5, 8]: 1100 ± 180 µM | inhibition of primase activity ([6]; template C20GCCCTA15, increasing ddGTP up to 2 mM): up to 90% | incorporation by primase as third and later nucleotide (new products) ([6]; template C20GCCCTA15 for GTP analogues, ATP, [α-32P]GTP, partly data not shown): no new products
